Values quoted from earlier work, collected in patent US20110230399A1, “Methods for Treating Obesity Related Disease” (priority 2008, published 2011).

Key:
[1] = in vivo
hypothalamic slices = details: in vitro

Substance: NPY13-36: Neuropeptide Y fragment 13-36; full agonist at the Y2 receptor
- stimulation of food intake [1]: does not stimulate food intake
- NPY release from hypothalamic slices (hypothalamic slices): inhibits NPY release
